# Measured values from patent US11453677B2 (priority 2016, dated 2022).
# Experiments:
# Assay type in all cases: cell-based
# [1] = tested on: influenza virus H1N1 in MDCK cells; settings: MOI 0.005, 48 hours, neuraminidase activity, read-out: NA_VIR_H1N1 EC50
# Source text: (§1) Influenza Virus Neuraminidase Assay (NA Assay)
# [2] = tested on: influenza virus H3N2 in MDCK cells; settings: MOI 0.005, 48 hours, neuraminidase activity, read-out: NA_VIR_H3N2 EC50
# Source text: as §1
# [3] = tested on: influenza A virus minigenome (PB2, PB1, PA, NP) RNP_CAL in 293T cells; assay: cells; settings: HEK-293T, 48 h, read-out: RNP_CAL_EC50
# [4] = tested on: influenza virus minigenome (PB2, PB1, PA, NP) RNP_Hubei in 293T cells; assay: cells; settings: unidentified influenza virus, HEK-293T, 48 h, read-out: RNP_Hubei EC50
# [5] = tested on: influenza A virus minigenome (PB2, PB1, PA, NP) RNP_Alaska in 293T cells; assay: cells; settings: HEK-293T, 48 h, read-out: RNP_Alaska EC50
Structure (SMILES),EC50 [1],EC50 [2],EC50 [3],EC50 [4],EC50 [5]
"O=c1ccn2c(c1O)-c1ncc(C(F)(F)F)n1C[C@@H]2C(c1ccccc1)c1ccccc1 [Example 58, (S)-6-benzhydryl-11-hydroxy-3-(trifluoromethyl)-5H-imidazo[1,2-a]pyrido[2,1-c]pyrazin-10(6H)-one]",200 nM,–,–,–,–
"O=c1ccn2c(c1O)-c1ncc(CN3CCOCC3)n1C[C@@H]2C(c1ccccc1)c1ccccc1 [Example 67, (S)-6-benzhydryl-11-hydroxy-3-(morpholinomethyl)-5,6-dihydro-10H-imidazo[1,2-a]pyrido[2,1-c]pyrazin-10-one]",–,10000 nM,–,–,–
"Cn1cnc2c1CN(C(c1ccccc1)c1ccccc1)n1ccc(=O)c(O)c1-2 [Example 82, 5-benzhydryl-10-hydroxy-3-methyl-4,5-dihydroimidazo[4,5-d]pyrido[1,2-b]pyridazin-9(3H)-one]",1000 nM,4000 nM,–,–,–
"CNC(=O)c1cnc2n1C[C@H](C(c1ccccc1)c1ccccc1)n1ccc(=O)c(O)c1-2 [Example 69, (S)-6-benzhydryl-11-hydroxy-N-methyl-10-oxo-5,6-dihydro-10H-imidazo[1,2-a]pyrido[2,1-c]pyrazine-3-carboxamide]",–,> 50000 nM,–,–,–
"COCCNC(=O)c1cnc2n1C[C@H](C(c1ccccc1)c1ccccc1)n1ccc(=O)c(O)c1-2 [Example 71, (S)-6-benzhydryl-11-hydroxy-N-(2-methoxyethyl)-10-oxo-5,6-dihydro-10H-imidazo[1,2-a]pyrido[2,1-c]pyrazine-3-carboxamide]",–,> 50000 nM,–,–,–
"O=c1cnn2c(c1O)-c1nccn1C[C@H]2C(c1cccc(Cl)c1)c1cccc(Cl)c1 [Example 16, (R)-6-(bis(3-chlorophenyl)methyl)-11-hydroxy-5H-imidazo[2′,1′:3,4] pyrazino [1,2-b]pyridazin-10(6H)-one]",–,–,820 nM,950 nM,960 nM
"O=c1cnn2c(c1O)-c1nccn1C[C@@H]2[C@H](c1ccc(F)cc1)c1cncc(F)c1 [Example 19, (S)-6-((R)-(4-fluorophenyl)(5-fluoropyridin-3-yl)methyl)-11-hydroxy-5,6-dihydro-10H-imidazo[2′,1′:3,4]pyrazino[1,2-b]pyridazin-10-one]",–,–,260 nM,490 nM,230 nM
"O=c1cnn2c(c1O)-c1nccn1CC2C(c1ccc(F)cc1)c1ccc(F)cc1 (stereo not drawn) [Example 12, 6-(bis(4-fluorophenyl)methyl)-11-hydroxy-5H-imidazo[2′,1′:3,4]pyrazino[1,2-b]pyridazin-10(6H)-one]",–,–,800 nM,60 nM,70 nM
"O=c1ccn2c(c1O)-c1ncc(-c3cn[nH]c3)n1C[C@@H]2C(c1ccccc1)c1ccccc1 [Example 52, (S)-6-benzhydryl-11-hydroxy-3-(1H-pyrazol-4-yl)-5,6-dihydro-10H-imidazo[1,2-a]pyrido[2,1-c]pyrazin-10-one]",–,–,8300 nM,970 nM,5100 nM
"O=c1cnn2c(c1O)-c1ncc(CO)n1C[C@@H]2C(c1ccc(F)cc1)c1ccc(F)cc1 [Example 50, (S)-6-(bis(4-fluorophenyl)methyl)-11-hydroxy-3-(hydroxymethyl)-5,6-dihydro-10H-imidazo[2′,1:3,4]pyrazino[1,2-b]pyridazin-10-one]",–,–,100 nM,700 nM,430 nM
"O=c1ccn2c(c1O)-c1nccn1CN2C1c2ccccc2CSc2ccccc21 (stereo not drawn) [Example 74, 6-(6,11-dihydrodibenzo[b,e]thiepin-11-yl)-11-hydroxy-5,6-dihydro-10H-imidazo[1,2-d]pyrido[2,1-f][1,2,4]triazin-10-one]",–,–,84 nM,260 nM,130 nM
"O=c1ccn2c(c1O)-c1ncc(C(F)F)n1C[C@@H]2C(c1ccccc1)c1ccccc1 [Example 57, (S)-6-benzhydryl-3-(difluoromethyl)-11-hydroxy-5H-imidazo[1,2-a]pyrido[2,1-c]pyrazin-10(6H)-one]",–,–,180 nM,580 nM,220 nM
"O=c1cnn2c(c1O)-c1nccn1C[C@@H]2[C@H](c1ccc(F)cc1)c1cccc(F)c1 [Example 26, (S)-6-((R)-(3-fluorophenyl)(4-fluorophenyl)methyl)-11-hydroxy-5,6-dihydro-10H-imidazo[2′,1′:3,4]pyrazino[1,2-b]pyridazin-10-one]",–,–,38 nM,51 nM,27 nM
"N#Cc1ccc([C@H](c2ccc(F)cc2)[C@H]2Cn3ccnc3-c3c(O)c(=O)cnn32)cc1 [Example 45, 4-((R)-(4-fluorophenyl)((S)-11-hydroxy-10-oxo-5,6-dihydro-10H-imidazo[2′,1′:3,4]pyrazino[1,2-b]pyridazin-6-yl)methyl)benzonitrile]",–,–,42 nM,160 nM,76 nM
"O=c1cnn2c(c1O)-c1nccn1C[C@@H]2[C@@H](c1ccc(F)cc1)c1cccc(C(F)(F)F)c1 [Example 21, (S)-6-((S)-(4-fluorophenyl)(3-(trifluoromethyl)phenyl)methyl)-11-hydroxy-5,6-dihydro-10H-imidazo[2′,1′:3,4]pyrazino[1,2-b]pyridazin-10-one]",–,–,52 nM,110 nM,71 nM
"O=C(c1cnc2n1C[C@H](C(c1ccccc1)c1ccccc1)n1ccc(=O)c(O)c1-2)N1CCCC1 [Example 72, (S)-6-benzhydryl-11-hydroxy-3-(pyrrolidine-1-carbonyl)-5,6-dihydro-10H-imidazo[1,2-a]pyrido[2,1-c]pyrazin-10-one]",–,–,1700 nM,5500 nM,3000 nM
"O=c1cnn2c(c1O)-c1nccn1C[C@@H]2C(c1ccc(F)cc1)c1ccc(F)cc1 [Example 22, (S)-6-(bis(4-fluorophenyl)methyl)-11-hydroxy-5,6-dihydro-10H-imidazo[2′,1′:3,4]pyrazino[1,2-b]pyridazin-10-one]",–,–,82 nM,10 nM,27 nM
"CCc1cnc2n1C[C@H](C(c1ccccc1)c1ccccc1)n1ccc(=O)c(O)c1-2 [Example 9, (S)-6-benzhydryl-3-ethyl-11-hydroxy-5H-imidazo[1,2-a]pyrido[2,1-c]pyrazin-10(6H)-one]",–,–,580 nM,590 nM,850 nM
"CC(C)CC(=O)Oc1c2n(ncc1=O)[C@@H](C(c1ccc(F)cc1)c1ccc(F)cc1)Cn1ccnc1-2 [Example 87, (S)-6-(bis(4-fluorophenyl)methyl)-10-oxo-5,6-dihydro-10H-imidazo[2′,1′:3,4]pyrazino[1,2-b]pyridazin-11-yl 3-methylbutanoate]",–,–,21 nM,43 nM,27 nM
